Results on 3 compounds are retold here after US6019997A, “Hydroalcoholic compositions for transdermal penetration of pharmaceutical agents” (priority 1997, dated 2000).

What all share (format): physicochemical
A short description of data set [1]: Viscosity (Brookfield LVDV-I+ viscometer, 23° C.). The settings on record: result in words. The procedure:
In the following Examples (except where indicated) viscosity was measured at 23° C. at ambient pressure using a Brookfield LVDV-I^+ viscometer equipped with a model D Brookfield heliopath and T spindles B-F. The spindle and speed was chosen for each particular sample such that the viscometer was operating in the middle of its range. All samples were allowed to equilibrate at 23° C. for 24 hours prior to measurement. Preferably the viscosity is taken at the lowest speed possible while staying within 20-80% of the viscometer range and more preferably between 30-70% of the range. In all cases the sample size and container geometry was chosen to ensure that there were no wall effects. By "wall effects" it is meant the viscosity value is not affected by the container and is essentially equivalent to the viscosity taken in an infinitely large container. For this reason lower viscosity samples required a larger sample size to accommodate the larger spindles. The following table outlines preferred spindles for various sample viscosities.
The viscosity of each sample was taken as the highest relatively stable reading achieved on the first path the spindle traversed using the heliopath adapter.

A short description of the next data set: Melt temperature (Tm). The settings on record: result in words. The procedure: The melt temperature was measured by placing approximately 15 grams sample in a 25 cc sealed glass vial and placing the vial in a water bath. The temperature of the bath was increased periodically in discrete increments and the contents checked after approximately 1 hour at a given temperature. The melt temperature was taken as the temperature at which the mixture became very low in viscosity.

The nature of another data set: Emulsion stability. The settings on record: concentrations below about 1% by weight.

As for `CCCCCCCCCCCCCCCC` [hexadecane], in data set [1], the “effect of emollient on viscoelasticity of certain emulsifier systems” value was “can increase the viscoelasticity of certain emulsifier systems”.

For the compound `CCCCCCCCCCCCOCCOCCOCCOCCO` [laureth-4], the “effect of emollient on melt temperature of the composition” value in “Melt temperature (Tm)” was “tends to decrease the melt temperature of the composition”. In “Emulsion stability”, the “phase separation when heated above the melt temperature” value was “does not phase out”. trioctyldodecyl citrate: in the data set “Melt temperature (Tm)”, the “effect of emollient on melt temperature of the composition” value was “significantly decrease the melt temperature of some systems”.
